Like-named read-outs stand apart in the source and are kept apart here.
System: panel of cell lines and tumor explants
Assay: Soft agar (clonogenic) assay on cell lines and tumor explants
Format: cell-based, human
Conditions: Homo sapiens
Experimental: Compound IIa was tested against a panel of cell lines and tumor explants in a soft agar assay as described in Fiebig, H. H., Maier, A., and Burger, A. M. (Clonogenic assay with established human tumour xenorafts: correlation of in vitro to in vivo activity as a basis for anticancer drug discovery, Eur. J. Cancer 40, 802-820 (2004).) Table 16 lists the type of cancer, the name of the sample, its GI50 (concentration needed to achieve 50% growth inhibition) value in the assay, the logarithm of the GI50 (log(GI50), and the relative sensitivity of each sample (Differential). The differential is calculated by subtracting the log(GI50) for each cell line from the average log(GI50) across the entire panel (0.236 in this case); a positive value indicates a sample that is more sensitive than average, whereas a negative value indicates a sample that is less sensitive than average.

For CC(C)(C)[C@H](c1nc(-c2cc(F)ccc2F)cn1Cc1ccccc1)N(CC[C@H](N)CF)C(=O)CO [Compound IIa], the GI50 (Breast, sample 1162, read-out: GI50) was 0.286 nM, the GI50 (Breast, sample 1322, GI50 in nM, read-out: log(GI50) (converted)) was 1.4 nM and the GI50 (Breast, sample 1322, read-out: GI50) was 1.4 nM. For the same compound, the GI50 (Breast, sample 1384, GI50 in nM, read-out: log(GI50) (converted)) was 2.67 nM, the GI50 (Breast, sample 1384, read-out: GI50) was 2.67 nM and the GI50 (Breast, sample 1398, GI50 in nM, read-out: log(GI50) (converted)) was 0.239 nM. For the same compound, the GI50 (Breast, sample 1398, read-out: GI50) was 0.239 nM, the GI50 (CCRF-CEM, Leukemia (ALL), sample CCRFCEM, GI50 in nM, read-out: log(GI50) (converted)) was 0.287 nM and the GI50 (CCRF-CEM, Leukemia (ALL), sample CCRFCEM, read-out: GI50) was 0.287 nM. The GI50 (Colorectal, sample 94LX, GI50 in nM, read-out: log(GI50) (converted)) was 19.5 nM, the GI50 (Colorectal, sample 94LX, read-out: GI50) was 19.5 nM and the GI50 (Colorectal, sample 158, GI50 in nM, read-out: log(GI50) (converted)) was no less than 10 nM. For the same compound, the GI50 (Colorectal, sample 158, read-out: GI50) was 10 nM, the GI50 (Colorectal, sample 233, GI50 in nM, read-out: log(GI50) (converted)) was 0.238 nM and the GI50 (Colorectal, sample 233, read-out: GI50) was 0.238 nM. The GI50 (Colorectal, sample 243, GI50 in nM, read-out: log(GI50) (converted)) was no less than 10 nM, the GI50 (Colorectal, sample 243, read-out: GI50) was 10 nM and the GI50 (Colorectal, sample 260, GI50 in nM, read-out: log(GI50) (converted)) was no less than 10 nM. The GI50 (Colorectal, sample 260, read-out: GI50) was 10 nM, the GI50 (Colorectal, sample 268, GI50 in nM, read-out: log(GI50) (converted)) was 6.24 nM and the GI50 (Colorectal, sample 268, read-out: GI50) was 6.24 nM. It also gave a GI50 (Colorectal, sample 280, GI50 in nM, read-out: log(GI50) (converted)) of no less than 10 nM, a GI50 (Colorectal, sample 280, read-out: GI50) of 10 nM and a GI50 (Colorectal, sample 504, GI50 in nM, read-out: log(GI50) (converted)) of 0.273 nM. It also gave a GI50 (Colorectal, sample 504, read-out: GI50) of 0.273 nM, a GI50 (Colorectal, sample 533, GI50 in nM, read-out: log(GI50) (converted)) of 1.75 nM and a GI50 (Colorectal, sample 533, read-out: GI50) of 1.75 nM. The GI50 (Colorectal, sample 609, GI50 in nM, read-out: log(GI50) (converted)) was no less than 10 nM, the GI50 (Colorectal, sample 609, read-out: GI50) was 10 nM and the GI50 (Colorectal, sample 647, GI50 in nM, read-out: log(GI50) (converted)) was no less than 10 nM. It also gave a GI50 (Colorectal, sample 647, read-out: GI50) of 10 nM, a GI50 (Colorectal, sample 676, GI50 in nM, read-out: log(GI50) (converted)) of no less than 10 nM and a GI50 (Colorectal, sample 676, read-out: GI50) of 10 nM. It also gave a GI50 (Colorectal, sample 742, GI50 in nM, read-out: log(GI50) (converted)) of 1.87 nM, a GI50 (Colorectal, sample 742, read-out: GI50) of 1.87 nM and a GI50 (Colorectal, sample 975, GI50 in nM, read-out: log(GI50) (converted)) of no less than 10 nM. For the same compound, the GI50 (Colorectal, sample 975, read-out: GI50) was 10 nM, the GI50 (Colorectal, sample 1034, GI50 in nM, read-out: log(GI50) (converted)) was 0.214 nM and the GI50 (Colorectal, sample 1034, read-out: GI50) was 0.214 nM. For the same compound, the GI50 (Colorectal, sample 1044, GI50 in nM, read-out: log(GI50) (converted)) was 0.612 nM, the GI50 (Colorectal, sample 1044, read-out: GI50) was 0.612 nM and the GI50 (Colorectal, sample 1103, GI50 in nM, read-out: log(GI50) (converted)) was 1 nM. It also gave a GI50 (Colorectal, sample 1103, read-out: GI50) of 1 nM, a GI50 (Colorectal, sample 1297, GI50 in nM, read-out: log(GI50) (converted)) of no less than 10 nM and a GI50 (Colorectal, sample 1297, read-out: GI50) of 10 nM. The GI50 (Colorectal, sample 1299, GI50 in nM, read-out: log(GI50) (converted)) was no less than 10 nM, the GI50 (Colorectal, sample 1299, read-out: GI50) was 10 nM and the GI50 (Colorectal, sample 1729, GI50 in nM, read-out: log(GI50) (converted)) was no less than 10 nM. It also gave a GI50 (Colorectal, sample 1729, read-out: GI50) of 10 nM, a GI50 (Colorectal, sample 1753, GI50 in nM, read-out: log(GI50) (converted)) of 11.3 nM and a GI50 (Colorectal, sample 1753, read-out: GI50) of 11.3 nM. The GI50 (Colorectal, sample 1783, GI50 in nM, read-out: log(GI50) (converted)) was 0.721 nM, the GI50 (Colorectal, sample 1783, read-out: GI50) was 0.721 nM and the GI50 (Colorectal, sample 1784, GI50 in nM, read-out: log(GI50) (converted)) was 5.97 nM. The GI50 (Colorectal, sample 1784, read-out: GI50) was 5.97 nM, the GI50 (Colorectal, sample 1788, GI50 in nM, read-out: log(GI50) (converted)) was 2.24 nM and the GI50 (Colorectal, sample 1788, read-out: GI50) was 2.25 nM. For the same compound, the GI50 (DU-145, Prostate, sample DU145, GI50 in nM, read-out: log(GI50) (converted)) was 1 nM, the GI50 (DU-145, Prostate, sample DU145, read-out: GI50) was 1 nM and the GI50 (Gastric, sample 209, GI50 in nM, read-out: log(GI50) (converted)) was no less than 10 nM. For the same compound, the GI50 (Gastric, sample 209, read-out: GI50) was 10 nM, the GI50 (Gastric, sample 214, GI50 in nM, read-out: log(GI50) (converted)) was 8.99 nM and the GI50 (Gastric, sample 214, read-out: GI50) was 9 nM. The GI50 (Gastric, sample 1172, GI50 in nM, read-out: log(GI50) (converted)) was no less than 10 nM, the GI50 (Gastric, sample 1172, read-out: GI50) was 10 nM and the GI50 (Jurkat, Leukemia (ALL), sample JURKAT, GI50 in nM, read-out: log(GI50) (converted)) was 0.106 nM. It also gave a GI50 (Jurkat, Leukemia (ALL), sample JURKAT, read-out: GI50) of 0.106 nM, a GI50 (K562, Leukemia (CML), sample K562, GI50 in nM, read-out: log(GI50) (converted)) of 0.27 nM and a GI50 (K562, Leukemia (CML), sample K562, read-out: GI50) of 0.27 nM. For the same compound, the GI50 (MOLT-4, Leukemia (ALL), sample MOLT4, GI50 in nM, read-out: log(GI50) (converted)) was 0.877 nM.

Reference: US8252832B2, “Kinesin inhibitors as cancer therapeutics” (Novartis AG, priority 2007, dated 2012)
